# Results published in patent US10206900B2, “Treatments for fibrotic diseases” (MOR RESEARCH APPLICATIONS LTD., priority 2013, dated 2019).
# Key:
# MMP-9 = MMP-9 activity by gelatin zymography in RPE cell supernatants; assay type: cell-based; settings: RPE cells, SB431542 10 μM pretreatment, TGF-β1 2.5 ng/ml, 24 hours
# Protocol: FIGS. 2A-2C TAK1 regulates RPE cells EMT phenotype upon TGF-β stimulation. FIG. 2A: RPE cells were serum-starved for 16 hours, pretreated with 5Z-7-oxozeaenol (1 μM) or left untreated for 1 hour. The cells were then treated with TGF-β1 (2.5 ng/ml) as described herein for 24 h and immunostained with α-SMA antibodies (red) and DAPI (blue). Representative photographs of three independent experiments. The histogram in the bottom panel represents quantification of α-SMA antibody pixel intensity. FIG. 2B: RPE cells were serum-starved for 16 hours, then treated with mitomycin C (10 ng/ml) for 3 h. Thereafter, pretreated with 5Z-7-oxozeaenol (1 μM) or Dimethyl sulfoxide (DMSO) for 1 hour. Following this process a scratch was performed in the cell monolayer and the serum free medium was supplemented with TGF-β1 (2.5 ng/ml) or left unsupplemented. Scratches were photo-documented at the indicated times (top panel) and their width was measured using Image-J software. […] Bars are Mean±SD. FIG. 2C: RPE cells were serum-starved for 16 hours then pretreated with 5Z-7-oxozeaenol (1 μM) or SB431542 (10 μM), or DMSO for 1 hour. […] Total MMP-9 activities were processed by gelatin zymography (top panel) and the band intensity values were calculated by Quantity One® 1-D analysis software. […] Data is expressed as the Mean±SD.
# RPE cells = test: Cell size / morphology (rhodamine-phalloidin staining) upon TGF-β1; assay type: cell-based; settings: 5Z-7-oxozeaenol 1 μM or SB431542 10 μM prior to TGF-β1
# Protocol: FIG. 3A: RPE cells were plated on fibronectin-coated glass coverslips, serum-starved for 16 hours, pretreated with 5Z-7-oxozeaenol (1 μM) or SB431542 (10 μM), or DMSO for 1 hour, then treated with or without TGF-β1 for 2 days. Following treatment, the cells were stained with rhodamine-phalloidin (actin fibers-red) and DAPI (blue) and visualized by confocal microscopy. Scale bars: […]. FIG. 3B: Serum-starved RPE cells pretreated with 5Z-7-oxozeaenol (1 μM) or DMSO for 1 hour, and were exposed to TGF-β as in FIG. 3A. Total RNA was extracted at each time point and qPCR was performed. Transcription levels of CTGF were determined after 6 h, 16 h and 24 h. Bars represent the specific mRNA amount relative to GAPDH mRNA in the same samples. All experiments were performed in triplicates. A representative histogram from two independent experiments is shown. FIG. 3C: RPE cells were plated and treated as in FIG. 3A. Following treatment, the cells were immunostained with E-cadherin antibodies (green) and DAPI (blue). Representative photographs of two independent experiments are shown. In addition to the secretion of MMPs and increased migratory capacity, several morphological changes underlie EMT (Lamouille et al., I 2007, 178:437-451). […]
structure (smiles),measurement,setting,value
NC(=O)c1ccc(-c2nc(-c3ccc4c(c3)OCO4)c(-c3ccccn3)[nH]2)cc1 [SB431542],activation of MMP-9 by TGF-β1,MMP-9,completely abolished the activation of MMP-9
same,TGF-β1-induced increase in cell size (hypertrophic RPE cells),RPE cells,abolished the increase in cell size
